Test results from US6204220A, “Substituted 2-oxo-3-alkynoic acids and methods of use thereof” (Rutgers, The State University of New Jersey, priority 1999, dated 2001).
Entries after “also recorded” stand apart in the source; their conditions may differ. Where two headings read alike, the source gives them in different places.

Key:
[1] = molecular target: T1, Pyruvate decarboxylase from Saccharomyces cerevisiae (Saccharomyces cerevisiae, UniProt P06169); assay: Inactivation of pyruvate decarboxylase (PDC); type: biochemical
T1 construct: made in house; host or cells: E. coli
T1 sequence (P06169 2-563 limits assumed): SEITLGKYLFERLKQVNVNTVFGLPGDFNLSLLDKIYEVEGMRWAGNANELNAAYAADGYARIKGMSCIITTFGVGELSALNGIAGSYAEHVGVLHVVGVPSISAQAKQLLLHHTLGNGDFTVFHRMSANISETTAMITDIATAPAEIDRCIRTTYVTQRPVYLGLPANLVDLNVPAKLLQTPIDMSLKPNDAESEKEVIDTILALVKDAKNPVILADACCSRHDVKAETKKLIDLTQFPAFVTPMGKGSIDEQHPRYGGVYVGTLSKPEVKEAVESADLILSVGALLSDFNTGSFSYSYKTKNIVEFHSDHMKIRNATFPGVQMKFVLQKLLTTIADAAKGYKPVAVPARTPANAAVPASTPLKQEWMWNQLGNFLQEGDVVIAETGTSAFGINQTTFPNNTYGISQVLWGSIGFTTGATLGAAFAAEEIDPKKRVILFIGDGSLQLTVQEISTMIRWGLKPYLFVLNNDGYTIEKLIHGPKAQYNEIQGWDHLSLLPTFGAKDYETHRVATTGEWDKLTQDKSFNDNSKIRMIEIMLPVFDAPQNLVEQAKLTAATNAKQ
Experimental: Pyruvate decarboxylase from Saccharomyces cerevisiae was overexpressed in E. coli (Baburina et al., 1994), then purified according to Farrenkopf & Jordan (1992). It was assayed spectrophotometrically by coupling to alcohol dehydrogenase (Holzer et al., 1960).

[2] = molecular target: T2, Pyruvate oxidase from Lactobacillus plantarum (Lactiplantibacillus plantarum, UniProt P37063); assay: Inactivation of pyruvate oxidase (POX); type: biochemical; conditions: for kinact/KI: read-out: kc/Ki,c (converted)
T2 construct: purchased Boehringer Mannheim (a gift, not bought)
T2 sequence (P37063 1-603): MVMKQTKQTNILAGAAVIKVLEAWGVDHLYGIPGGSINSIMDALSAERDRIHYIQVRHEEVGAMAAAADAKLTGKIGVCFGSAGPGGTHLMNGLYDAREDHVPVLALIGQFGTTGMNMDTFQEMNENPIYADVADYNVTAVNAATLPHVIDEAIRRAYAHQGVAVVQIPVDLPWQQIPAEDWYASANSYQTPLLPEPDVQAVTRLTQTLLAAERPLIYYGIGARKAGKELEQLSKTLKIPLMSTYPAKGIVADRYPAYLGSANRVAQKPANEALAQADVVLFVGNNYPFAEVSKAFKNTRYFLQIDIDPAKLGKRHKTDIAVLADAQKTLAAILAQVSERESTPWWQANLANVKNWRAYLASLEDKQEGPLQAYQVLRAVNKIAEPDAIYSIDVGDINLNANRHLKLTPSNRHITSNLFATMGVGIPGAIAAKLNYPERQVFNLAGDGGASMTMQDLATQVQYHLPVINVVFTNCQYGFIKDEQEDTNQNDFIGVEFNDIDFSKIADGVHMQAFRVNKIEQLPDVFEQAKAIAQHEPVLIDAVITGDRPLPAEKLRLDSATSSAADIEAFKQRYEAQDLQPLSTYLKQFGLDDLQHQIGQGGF
Experimental: Pyruvate oxidase from Lactobacillus plantarum was a gift from Boehringer Mannheim and was assayed according to the manufacturer's instructions at 25° C. by measuring the rate of 4-quinonimine production from H2 O2, 3,5-dichlorophenolsulfonic acid and 4-aminoantipyrine in the presence of horseradish peroxidase, at 546 nm, using a Cobas-Bio (Roche Diagnostics, Somerville, N.J.) automated centrifugal analyzer. The assay reaction mixture (total vol. 0.25 mL) contained: 40 mM sodium pyruvate; 50 mM potassium phosphate buffer, pH 6.5 with 10% (v/v) glycerol; 6.8 mM 3,5-dichlorophenolsulfonic acid; 0.03% of 4-aminoantipyrine; and 5u/mL of horseradish peroxidase. The reaction was initiated by adding POX.

PDHc = PDHc (Escherichia coli, UniProt P0AFG8); assay: Inactivation of 1-lip and 3-lip PDH complexes by 2-oxo-3-alkynoic acids (overall NADH assay); type: biochemical, E. coli; design: made in house; host or cells: E. coli JRG1342 (PDHc null) with Ptac plasmid pGS501 (1-lip) or pGS523 (3-lip); conditions: for kapp, slower phase of inactivation: PDHc
Text: Bacterial strains and plasmids for PDHc. Derivatives of the PDHc null strain, E. coli JRG1342 contained Ptac expression plasmids encoding PDHc with E2 chains bearing three lipoyl domains (3-lip PDHc; pGS523, the wild type parental complex), or a single lipoyl domain in each E2 subunit (1-lip PDHc; pGS501), and variant 1-lip PDH complexes with mutations in the E1 gene leading to C259S (pGS457) and C259N (pGS596) substitutions (Machado et al., 1992; Machado, 1993).
Purification of PDHc. Cultures for purification of 1-lip and 3-lip PDH complexes were grown at 37° C. in LB medium containing glucose (0.2%) and ampicillin (50 μg/mL). The PDH complexes were induced by adding IPTG to 60 μM as described by Russell et al. (1992). Cells were disrupted by ultrasonic treatment after preincubation with lysozyme (0.6 mg/mL final concentration) for 15 min. The PDHc was sedimented by ultracentrifugation (100,000×g for 3 h) and further purified by chromatography on a
Sephacryl S-400 HR column. Fractions containing PDHc were pooled and treated with ammonium sulfate to 70% saturation. The enzyme was dissolved in buffer A (20 mM potassium phosphate, pH 7.8, 2 mM Na2 EDTA, 1 mM PMSF, and 1 mM benzamidine.HCl) then dialyzed against the same buffer. The PDH complexes were stored in buffer A at -20° C.
(§1) Activity and related measurements on PDHc. The overall enzymatic reaction of the PDH complex was assayed using a Varian DMS 300 spectrophotometer or the Cobas Bio (Roche Diagnostics, Somerville, N.J.) automated centrifugal analyzer, monitoring the pyruvate-dependent reduction of NAD^+ at 340 nm. The reaction medium contained in 1 mL (DMS 300) or 0.25 mL (Cobas-Bio) test volume: 0.1 M Tris-HCl, pH 8.0; 1 mM MgCl2; 2 mM sodium pyruvate; 2.5 mM NAD^+; 0.052-0.2 mM coenzyme A; 0.2 mM ThDP; and 2.6 mM DTT at 27° C. The reaction was initiated either by adding enzyme to a mixture of all other components, or by adding CoA.
(§2) One unit of activity is defined as the amount of NADH produced (μmol) per min per mg protein. The activity of resolved E1 was measured after reconstitution with excess E2-E3 subcomplex using the NADH assay for PDHc activity.
(§3) Inactivation of 1-lip and 3-lip PDH complexes and resolved E1 component by 2-oxo-3-alkynoic acids. Intact 1-lip or 3-lip PDH complexes (0.050-0.1 mg) or resolved E1 component (0.05-0.09 mg) were incubated in the dark with 5 mM MgCl2, […] of 2-oxo-3-alkynoic acids in 20 mM KH2 PO4 buffer, pH 7.5 at room temperature in a total volume 0.5 mL. The initial activity (100%) was assayed prior to the addition of 2-oxo-3-alkynoic acids. Samples (50 μL) were withdrawn periodically and diluted into 1 mL of assay solution, containing all components necessary for assay of the overall activity. The activity of untreated enzyme was stable during the time of inactivation.

[3] = molecular target: T3, PDC from Saccharomyces cerevisiae (Saccharomyces cerevisiae, UniProt P06169); conditions: cited from earlier work; for inhibition of brewer's yeast PDC (in words): Chiu & Jordan, 1994
T3 sequence (P06169 2-563 limits assumed): T1 sequence (P06169 2-563 limits assumed)

PDHc from E. coli = PDHc from E. coli (Escherichia coli, UniProt P0AFG8); conditions: cited from earlier work
[4] = molecular target: T4, POX from Lactobacillus plantarum (Lactiplantibacillus plantarum, UniProt P37063); conditions: cited from earlier work
T4 sequence (P37063 1-603): T2 sequence (P37063 1-603)

resolved E1 [5] = molecular target: T5, resolved E1 (Escherichia coli, UniProt P0AFG8); assay: Inactivation of resolved E1 component (activity after reconstitution with E2-E3 subcomplex); type: biochemical, E. coli; conditions: for effect on catalytic activity of resolved E1 (in words): data not shown
T5 construct: made in house; host or cells: resolved from PDHc expressed in E. coli JRG1342
Experimental: Resolution of the E1 component from PDHc. […] PDHc was dialyzed against 50 mM Tris buffer, pH 9.0, containing 0.1 mM benzamidine.HCl, 0.15 M NaCl, 0.1 mM PMSF for 2 h, before applying to a column equilibrated and eluted with the same buffer.
as §1, §2, §3

resolved E1 [6] = molecular target: T5, resolved E1; conditions: read-out: Ki, reversible inhibition of resolved E1; dichorophenolindophenol assay, Lowe & Perham 1984; cited from earlier work
resolved E1 [7] = molecular target: T5, resolved E1; conditions: read-out: Ki E1; calculated from data of Flournoy and Frey (1989); cited from earlier work
E1 = molecular target: T6, E1 (Escherichia coli, UniProt P0AFG8); assay: Fluorescence measurements on binding to E1; design: species or system E. coli; conditions: 2 mM
T6 construct: made in house; host or cells: resolved from PDHc expressed in E. coli JRG1342
Experimental: Fluorescence measurements on the binding of 2-oxo-3-butynoic acid to E1. The fluorescence spectrum of apo-E1 (enzyme having no activity in the absence of ThDP) was measured using the SLM8100 spectrofluorimeter at 25° C. The excitation wavelength was 295 nm and the emission spectrum, presumably due to tryptophan, was recorded in the 300-450 nm range in a 1 mL or 3 mL quartz cuvette. The concentration of apo-E1 was 0.05-0.175 mg/mL in 20 mM KH2 PO4 buffer, pH 7.5. The excitation and emission monochromator slit widths were 4 nm. The V.3.0 software and KaleidaGraph computer program were used for data processing. The emission maximum for tryptophan (λ=335 nm) was determined by fitting the points from the peak using the KaleidaGraph computer program.

For `CC#CC(=O)C(=O)O` [2-oxo-3-pentynoic acid, 2-Oxo-3-pentynoic acid], which “inhibition / inactivation of PDC (in words)” value [1] is on record?
The value was “inhibit”.

What about the “inhibition / inactivation of POX (in words)” value [2] of the same compound?
Its value is “inhibit”.

What about the saturation by inhibitor ([2]; POX) of the same compound?
Its saturation by inhibitor is “no”.

What about the kinact/KI ([2]; POX, from linear portion at high inhibitor concentrations (d)) of the same compound?
The kinact/KI was 0.207 M⁻¹ s⁻¹.

And the kinact/KI ([2]; POX, from linear portion at low inhibitor concentrations (c))?
Its kinact/KI is 0.0473 M⁻¹ s⁻¹.

What about the Ki (PDHc) of the same compound?
The Ki was 276 µM.

What about the “partial protection by pyruvate on slow phase of inactivation” value (PDHc; 1-lip PDHc, 3 mM inhibitor, 5 mM pyruvate, 1 mM ThDP) of the same compound?
The value was 21%.

And the “kapp, slower phase of inactivation” value (PDHc; 3 mM inhibitor)?
Its value is 0.048 min⁻¹.

What about the “kapp, slower phase of inactivation” value (PDHc; 4 mM inhibitor) of the same compound?
Its value is 0.022 min⁻¹.

And the kinact/KI (PDHc; pH 7.5, read-out: ki/Ki PDHc)?
Its kinact/KI is 25.3 M⁻¹ s⁻¹.

And the activity at 3000 µM (PDHc; read-out: residual activity after 26 min of inactivation, 1-lip PDHc, 3 mM inhibitor, absence of pyruvate)?
Its activity at 3000 µM is 14%.

And the activity at 3000 µM (PDHc; read-out: residual activity after 26 min of inactivation, 1-lip PDHc, 3 mM inhibitor, presence of 5 mM pyruvate)?
Its activity at 3000 µM is 35%.

With `O=C(O)C(=O)C=Cc1ccccc1` [2-oxo-4-phenyl-3-butenoic acid, reference compound] as the compound, how does the “inhibition of brewer's yeast PDC (in words)” value [3] read?
The value was “inhibited”.

What about the “inhibition / inactivation of PDHc (in words)” value (PDHc) of the same compound?
The value was “no effect”.

What does the source list for `O=C(O)C(=O)C#Cc1ccccc1` [2-oxo-4-phenyl-3-butynoic acid, reference compound]?
inhibition of brewer's yeast PDC (in words) [3]: inhibited; inhibition / inactivation of PDHc (in words) (PDHc): no effect; also recorded: no inhibition

For `CCC(=O)C(=O)O` [2-oxobutanoic acid], which Km (PDHc from E. coli; Bisswanger (1981), read-out: Km (substrate of E. coli PDHc)) is on record?
Its Km is 3 mM.

And the “substrate-like activity with POX” value ([4]; manufacturer's information)?
The value was “fails to show substrate-like activity”.

For `O=C(O)c1cc(SSc2ccc([N+](=O)[O-])c(C(=O)O)c2)ccc1[N+](=O)[O-]` [5,5'-dithiobis-(2-nitrobenzoic acid), reference compound], which “effect on catalytic activity of resolved E1 (in words)” value (resolved E1 [5]) is on record?
The value was “not significantly affected”.

What does the source list for `O=C(O)C(=O)/C=C/c1ccc(Cl)cc1` [E-4(4-chlorophenyl)-2-oxo-3-butenoic acid, reference compound]?
Ki ([1]; PDC, read-out: Ki): 700 µM; kinact ([1]; PDC, read-out: first order rate constant of inactivation (ki) (converted)): 0.00633 s⁻¹; kinact/KI ([1]; PDC, read-out: ki/Ki (converted)): 9 M⁻¹ s⁻¹

Which results are given for `CC(=O)[PH](=O)O` [acetylphosphinate]?
Ki (PDHc from E. coli; PDHc from E. coli): 0.15 µM; Ki ([4]; POX from Lactobacillus plantarum): 50 µM; Ki ([3]; PDC from Saccharomyces cerevisiae): 470 µM

For `O=C(O)C(=O)CBr` [bromopyruvate], which Ki (resolved E1 [6]) is on record?
Its Ki is 90 ± 15 µM.

For `O=C(O)C(=O)CF` [fluoropyruvate], which Ki (PDHc from E. coli; calculated from data of Flournoy and Frey (1989), read-out: Ki PDHc) is on record?
Its Ki is 33 µM.

And the Ki (resolved E1 [7])?
The Ki was 28 µM.

For `CSS(C)(=O)=O` [methylmethanethiolsulfonate, reference compound], which “effect on catalytic activity of resolved E1 (in words)” value (resolved E1 [5]) is on record?
Its value is “not significantly affected”.

For `O=C(O)c1cc[c]([Hg][Cl])cc1` [p-chloromercuribenzoate, reference compound], which “molar excess required to inactivate E1” value (resolved E1 [5]) is on record?
Its value is 300 fold molar excess.

Which “decrease of fluorescence intensity of E1” value (E1; absence of ThDP) does the source give for `CC(=O)C(=O)O` [pyruvate, reference compound] here?
Its value is 21%.

And the “decrease of fluorescence intensity of E1” value (E1; with ThDP 0.2 mM and MgCl2 1 mM)?
Its value is “about 15%”.
